Laboratory results published in article PMC7922564, “Molecular Insights into an Antibiotic Enhancer Action of New Morpholine-Containing 5-Arylideneimidazolones in the Fight against MDR Bacteria” (International Journal of Molecular Sciences, 2021).
In brackets after ≈: the same amount, converted by molar mass. Several values for one entry are separate records, joined by “and”; a condition that tells them apart may be missing. Identical values can stand only once.

Experiments:
[1] = Stability in acidic and basic conditions (TLC); format: physicochemical; settings: for Number of TLC spots: 1 = stable
Protocol: Compounds 9–12, 15, and 19 were also tested for their stability in acidic and basic conditions. This assay was carried out for 48 h and samples were taken at six-time intervals (10 min, 1 h, 2 h, 3 h, 24 h, 48 h). Stability of the compounds was determined using the TLC method. […] In basic conditions, only compounds 10 and 15 were stable for 24 h. […] Results with details, including time of degradation of products obtained, are presented in the Supplementary (Tables S19 and S20). […]
VI. Stability in different pH conditions
Stability of chosen compounds (9-12, 15, and 19) were determined using the TLC method. Assays were performed in acidic and basic conditions and were carried out for 48 h. Samples were taken at six-time intervals (10 min., 1 h, 2 h, 3 h, 24 h, 48 h). […]
of spots observed on TLC, where 1 indicate that compound is stable (only TLC spot for proper compound was observed). Higher values point out how many products of degradation was observed, which can be calculating by subtracting one from number of spots.
Table S19. Results of chosen compounds (9-12, 15, 19) stability in acidic conditions.
Compound Number of TLC spots in defined time
Table S20. Results of chosen compounds (9-12, 15, 19) stability in basic conditions.

[2] = tested on: S. aureus Mu50; experiment: MIC of compounds, S. aureus Mu50; format: cell-based; settings: Staphylococcus aureus; Mu50 (VISA)
Protocol: Compounds 14–16 were tested further for their adjuvant-like effect with a set of ten additional S. aureus isolates. Firstly, MIC values of the molecules were evaluated in two clinical MSSA isolates (MM-O058, MM-N072), seven MRSA (USA300 LAC, 5328, LG-N017, MM-O021, R45-CC45, R46-CC22, COL) and one VISA strain (Mu50). Detailed results are presented in the Supplementary section (Table S3). […]
Initially, MICs of a series of imidazolone derivatives were assessed against susceptible (reference) and MDR strains of staphylococci. Next, MIC values of the aforementioned antibiotics were determined in the absence and presence of imidazolone derivatives to assess the chemosensitizing effect of these compounds. […] Antibacterial activity of compounds and antibiotics ampicillin, vancomycin, ciprofloxacin, and erythromycin was recorded as the lowest concentration of molecules able to inhibit bacterial growth after 18 h incubation at 37 °C. […] The results are presented as activity gain (A) parameter which was calculated as ratio of MIC of a certain antibiotic (MICAnt) to its MICAnt+Comp, observed in combination with a tested compound (7, 12–16, 19, or 20; Equation (1)). […]

[3] = target: CYP3A4 (Homo sapiens, UniProt P08684); experiment: Luminescent CYP3A4 P450-Glo assay
Sequence of CYP3A4 (P08684 whole entry): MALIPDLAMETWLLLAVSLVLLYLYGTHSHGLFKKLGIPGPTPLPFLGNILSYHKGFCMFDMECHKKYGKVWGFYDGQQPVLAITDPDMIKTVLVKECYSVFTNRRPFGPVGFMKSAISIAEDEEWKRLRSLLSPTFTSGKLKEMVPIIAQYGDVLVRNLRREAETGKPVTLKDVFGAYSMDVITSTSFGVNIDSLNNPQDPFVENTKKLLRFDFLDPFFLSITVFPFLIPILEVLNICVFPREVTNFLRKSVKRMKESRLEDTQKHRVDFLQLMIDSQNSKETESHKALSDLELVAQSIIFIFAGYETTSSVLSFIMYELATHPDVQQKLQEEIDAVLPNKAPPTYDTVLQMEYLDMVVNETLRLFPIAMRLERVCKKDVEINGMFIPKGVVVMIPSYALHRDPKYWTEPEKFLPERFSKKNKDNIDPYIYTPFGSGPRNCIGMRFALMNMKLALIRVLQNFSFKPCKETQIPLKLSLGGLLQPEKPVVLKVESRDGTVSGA
Protocol: The luminescent CYP3A4 P450-Glo™ assay was carried out according to a protocol described previously (Promega, Madison, WI, USA). […] Performance of enzymatic reaction was carried out in white polystyrene, flat-bottom Nunc™ MicroWell™ 96-Well Microplate (Thermo Scientific Waltham, MA, USA) and the result was measured with a microplate reader EnSpire in luminescence mode (PerkinElmer, Waltham, MA USA). IC50 values were calculated using GraphPad Prism™ software (version 5.01, San Diego, CA, USA). Compounds 15 and 19 were tested at concentrations from 0.01 μM to 25 μM.

[4] = Water solubility (UV spectroscopy); format: physicochemical
Text: Six representatives of 5-arylideneimidazolones (9–12, 15, 19) were chosen for the determination of water solubility. UV spectroscopy was used for the estimation of concentrations of compounds according to the method described earlier. Acquired UV absorbance, calculated means, and standard deviations for tested compounds are presented in Supplementary Table S18. Solubility results, presented in Table 6, point out that compounds from the same group (A or B, Table 1 and Table 2) with the two-ring aromatic moiety are more soluble than compounds with the fluorene motive (Group A: 9, 10, 11 vs. 12; Group B: 15 vs. 19). […] The most soluble of tested compounds was compound 15, which could be dissolved in water at a concentration of up to 205.502 mM/L.
Water solubility was obtained using UV spectroscopy method. Absorbance of tested solutions of compounds 9-12, 15, and 19, respectively in suitable dilution, in three repetitions as well as calculated arithmetic means, solubility and standard deviations are presented in Table S18. the solubility results […]
Table S18. Results of absorbance used for estimation of water solubility of tested compounds (9-12, 15, 19).
Abbreviations: A1, A2,and A3, UV absorbance in first, second, and third repetition; Amean, arithmetic mean of absorbance from three repetitions; s, standard deviation for absorbance; S, water solubility; SD – standard deviation for solubility. […]

[5] = tested on: MRSA 19449; experiment: MIC determination (microdilution), MRSA 19449; format: cell-based, Staphylococcus aureus; settings: Staphylococcus aureus, MRSA, no precipitation
Protocol: Determination of MIC values, i.e., intrinsic antibacterial activity, of products and antibiotics (oxacillin, ampicillin, vancomycin, ciprofloxacin, and erythromycin) in the presence and absence of compounds tested was conducted by the use of a standard 2-fold microdilution method in cation-adjusted Mueller Hinton broth following the Clinical and Laboratory Standards Institute (CLSI) guidelines. The MIC values were detected using an Infinite M200 pro Tecan microplate reader (Tecan® France, SA-Lyon, France). MIC determinations were conducted in 96-well microtiter plates and repeated 3–4 times.
Initially, MICs of a series of imidazolone derivatives were assessed against susceptible (reference) and MDR strains of staphylococci. Next, MIC values of the aforementioned antibiotics were determined in the absence and presence of imidazolone derivatives to assess the chemosensitizing effect of these compounds. […] 5-arylideneimidazolones and 5-arylidenethiazolones, which precipitated after addition to bacterial suspension in MH II medium, were tested at the highest concentrations at which precipitation was not observed. […] Antibacterial activity of compounds and antibiotics ampicillin, vancomycin, ciprofloxacin, and erythromycin was recorded as the lowest concentration of molecules able to inhibit bacterial growth after 18 h incubation at 37 °C. The incubation of bacterial strains exposed to oxacillin paired with compounds tested was conducted at 35 °C and extended to 24 h due to frequent occurrence of heterogeneity among MRSA strains. The results are presented as activity gain (A) parameter which was calculated as ratio of MIC of a certain antibiotic (MICAnt) to its MICAnt+Comp, observed in combination with a tested compound (7, 12–16, 19, or 20; Equation (1)). (1) A=(MICAnt/MICAnt+Comp)

[6] = tested on: S. aureus ATCC 25923; design: method as in earlier work; settings: unstarred value; published previously; cited from earlier work
[7] = tested on: AcrAB-TolC efflux pump in K. aerogenes strain Ea-289; design: method as in PMID 30691112; settings: compound 100 µM; previously described; cited from earlier work
[8] = tested on: K. aerogenes CM-64; design: method as in earlier work; settings: doxycycline, chloramphenicol, norfloxacin, already published, cited from earlier work
[9] = tested on: S. aureus ATCC 25923; design: method as in earlier work; settings: published previously, cited from earlier work

SMILES	Number of TLC spots ([1]; acidic conditions, 10 min)	Number of TLC spots ([1]; acidic conditions, 1 h)	Number of TLC spots ([1]; acidic conditions, 2 h)	Number of TLC spots ([1]; acidic conditions, 3 h)	Number of TLC spots ([1]; acidic conditions, 24 h)	Number of TLC spots ([1]; acidic conditions, 48 h)	Number of TLC spots ([1]; basic conditions, 10 min)	Number of TLC spots ([1]; basic conditions, 1 h)	Number of TLC spots ([1]; basic conditions, 2 h)	Number of TLC spots ([1]; basic conditions, 3 h)	Number of TLC spots ([1]; basic conditions, 24 h)	Number of TLC spots ([1]; basic conditions, 48 h)	MIC [2] [µM]	IC50 [3] [µM]	solubility [4]	MIC [5] [µM]	further results
NC1=N/C(=C\c2ccc(-c3ccccc3)cc2)C(=O)N1CCCN1CCOCC1 [Compound 15]	2	2	2	2	2	2	1	1	1	1	1	2	250	> 25	87600 µg/mL and 206000 µM	31.2 to 250	time stable ([1]; basic conditions): 24 h; inhibition at 25 µM ([3]; human): < 50%
NC1=N/C(=C\c2ccc(-c3ccccc3)cc2)C(=O)N1CCN1CCOCC1 [Compound 14]	–	–	–	–	–	–	–	–	–	–	–	–	≥ 500	–	–	31.2 to 250	–
NC1=N/C(=C\c2ccc3c(c2)Cc2ccccc2-3)C(=O)N1CCCN1CCOCC1 [Compound 19]	1	1	1	2	2	3	4	4	4	4	4	4	–	24.9	8530 µg/mL and 19500 µM	31.2 to 250	–
NC1=N/C(=C\c2cccc(Oc3ccccc3)c2)C(=O)N1CCCN1CCOCC1 [Compound 16]	–	–	–	–	–	–	–	–	–	–	–	–	–	–	–	–	MIC value [6]: 125 µM (≈ 50.8 µg/mL); Inhibition efficiency (IE) towards extrusion of 1,2'-dNA [7]: 61%; MIC reduction ([8]; erythromycin + compound): No effect; A (activity gain) ([8]; erythromycin): 1; MIC reduction ([9]; oxacillin alone to oxacillin + compound): No effect; A (activity gain) ([9]; oxacillin): 1
